Assay results published in US6130342A, “CYP2D fluorescent assay reagents” (Gentest Corporation, priority 1999, dated 2000).
“And” between values parts separate entries of the source, which are not always exact repeats. Equal entries are not always repeated.

Experiments:
CYP2D6 [1] = settings: Crespi et al. 1997; cited from earlier work
[2] = tested on: other human cytochromes P450; settings: Crespi et al. 1997; cited from earlier work
CYP2D6 [3] = target: T1, CYP2D6 (Homo sapiens, UniProt P10635); assay: biochemical
Experimental: The substrates, compounds of Formula I, were prepared in pH 7.4 potassium phosphate buffer or acetonitrile. […] The 12 wells in a row were used for one test. Wells 1 to 8 contained serial 1:3 dilutions of the inhibitors. Wells 9 and 10 contained no inhibitor and rows 11 and 12 were blanks for background fluorescence (stop solution added before the enzyme). After substrate and inhibitor addition, the plates were prewarmed to 37° C. Incubations were initiated by the addition of prewarmed enzyme and cofactors. […] Data was exported and analyzed using an Excel spreadsheet.

CYP2D6 [4] = target: T1, CYP2D6; assay: Enzyme kinetics with cDNA-expressed CYP2D6 (fluorometric); assay type: biochemical; parameters: purchased GENTEST Corporation P217; host or cells: baculovirus/insect cell (SUPERSOMES)
Experimental: (§1) The evaluation of compounds of Formula I were initially performed by measuring the kinetics of turnover using cDNA-expressed CYP2D6. Vmax and Km values are important for the optimization of the assay conditions and for setting the parameters for inhibition experiments. […] However, compounds Ib and Ic, contain the 4-trifluoromethyl group (R4) which shifts the fluorescent properties of these molecules to longer wavelengths.
(§2) Example Compound Ia. […] The substrate, compound Ia, was prepared in pH 7.4 potassium phosphate buffer (0.1 M). […] The final cofactor concentrations were 0.0082 mM NADP, 0.41 mM glucose-6-phosphate and 0.2 U/ml glucose-6-phosphate dehydrogenase. Final incubation volume was 0.2 ml. […] The activity was quantified by comparing to a standard curve of 3-[2-(N,N-diethylamino)ethyl]-7-hydroxy-4-methylcoumarin hydrochloride. Apparent Km and Vmax values were calculated by non-linear kinetics using SigmaPlot 4.0 software.
(§3) Example Compounds Ib and Ic. The following procedure applies to compounds Ib and Ic as substrates. […] The substrates, Ib and Ic, were prepared in acetonitrile. […] Final incubation volume was 0.2 ml. […] The enzyme activity was quantified by comparing to a standard curve of 3-[2-(N, N-diethyl-N-methylammonium)ethyl]-7-hydroxy-4-trifluoromethylcoumarin iodide (compound IIb) when assaying for metabolism of Ib or 3-[2-(diethylamino)ethyl]-7-hydroxy-4-trifluoromethyl coumarin (compound IIc) when assaying for metabolism of Ic. Apparent Km and Vmax values were calculated by non-linear kinetics using SigmaPlot 4.0 software.

[5] = tested on: panel of human P450 enzymes; assay: Selectivity in a panel of cDNA-expressed P450 enzymes (dealkylation); assay type: biochemical; settings: FIGS. 1, 2, and 3
Experimental: The selectivity of various P450 isoforms for dealkylation of compounds Ia, Ib and Ic was examined using a panel of commercially available human cDNA-expressed enzymes. A substrate that is selective for a single P450 isoform (substrate is catalytically turned over by a single P450 isoform) is a desirable trait in that its activity may be examined within a heterogeneous mixture of enzymes, for example, in human liver microsomes.
Example Compounds Ia, Ib and Ic. Compounds Ia, Ib and Ic were incubated as described in the examples (1) above except that the enzyme source consisted of one each of several different commercially available, baculovirus/insect cell expressed human cytochrome P450 enzymes (SUPERSOME®, GENTEST Corporation).

CYP2D6 [6] = target: T1, CYP2D6; assay: CYP2D6 specificity in human liver microsomes with and without quinidine; assay type: biochemical; parameters: purchased GENTEST Corporation P217; host or cells: baculovirus/insect cell (SUPERSOMES); settings: for pmole Product with quinidine: 5 uM quinidine; for pmole Product with quinidine / pmole Product: 5.0 uM compound I, 1.0 mg/ml HLM; for pmole Product: without quinidine
Experimental: Human liver microsomes (HLM) contain several drug (xenobiotic) metabolizing cytochromes P450. When HLM are used as an enzyme source, it is critical that the probe biotransformation be specifically catalyzed by the enzyme of interest.
After incubation, 100 ul of the reaction was added to 1.9 ml of 100 mM Tris (pH 9) and the fluorescence was determined with excitation at 390 nm and emission at 460 nm in a spectrofluorometer. The activity was quantitated by comparing to a standard curve of 3-[2-(diethylamino)ethyl]-7-hydroxy-4-methylcoumarin hydrochloride (Table III): […]

CYP2D6 [7] = settings: Kupfer et al. 1984; cited from earlier work
[8] = substrate: CCOc1ccc2cc(C#N)c(=O)oc2c1; assay: Enzyme kinetics with cDNA-expressed CYP2D6 (fluorometric); assay type: biochemical; settings: cDNA-expressed human CYP2D6, 37° C., pH 7.4
[9] = substrate: CC[N+](C)(CC)CCc1c(C(F)(F)F)c2ccc(OC)cc2oc1=O; assay: as above; assay type: biochemical; settings: cDNA-expressed human CYP2D6, 37° C., pH 7.4
Experimental: as §1, §2, §3

[10] = substrate: CC[N+](C)(CC)CCc1c(C)c2ccc(OC)cc2oc1=O; assay: as above; assay type: biochemical; settings: cDNA-expressed human CYP2D6, 37° C., pH 7.4
Experimental: as §1, §2, §3

[11] = substrate: CCN(CC)CCc1c(C(F)(F)F)c2ccc(OC)cc2oc1=O; assay: as above; assay type: biochemical; settings: cDNA-expressed human CYP2D6, 37° C., pH 7.4
Experimental: as §1, §2, §3

CCOc1ccc2cc(C#N)c(=O)oc2c1 [CEC, 3-cyano-7-ethoxycoumarin]
enzymatic turnover (CYP2D6 [1]): low enzymatic turnover
metabolism by other human cytochromes P450 [2]: significantly metabolized by other human cytochromes P450
specificity of substrate [2]: poor specificity

CCc1cccc2cc(C(O)CNC(C)(C)C)oc12 (centres unmarked) [Bufuralol]
IC50 (CYP2D6 [3]): 27 µM and 17 µM and 23.3 µM and 104 µM

CCN(CC)CCc1c(C(F)(F)F)c2ccc(OC)cc2oc1=O [Compound Ic, 3-[2-(diethylamino)ethyl]-7-methoxy-4-trifluoromethylcoumarin]
catalytic turnover (CYP2D6 [4]): lower catalytic turnover compared to compound Ia
catalytic selectivity for dealkylation [5]: also substrates for other human P450 enzymes

CC[N+](C)(CC)CCc1c(C)c2ccc(OC)cc2oc1=O [Compound Ia, 3-[2-(N,N-diethyl-N-methylammonium)ethyl]-7-methoxy-4-methylcoumarin]
catalytic turnover (CYP2D6 [4]): highest catalytic turnover
pmole Product with quinidine (CYP2D6 [6]; 0 min): 0 pmol
pmole Product (CYP2D6 [6]; 0 min): 0 pmol
pmole Product with quinidine (CYP2D6 [6]; 5 min): 0 pmol
pmole Product (CYP2D6 [6]; 5 min): 3.3 pmol
pmole Product with quinidine (CYP2D6 [6]; 10 min): 0 pmol
pmole Product (CYP2D6 [6]; 10 min): 6.3 pmol
pmole Product with quinidine (CYP2D6 [6]; 15 min): -0.7 pmol
pmole Product (CYP2D6 [6]; 15 min): 8.5 pmol
measurable metabolism / CYP2D6 specificity (CYP2D6 [6]; human liver microsomes, quinidine inhibition): exclusively due to CYP2D6
catalytic selectivity for dealkylation [5]: selective for CYP2D6

COc1ccc2c(c1)[C@]13CCCC[C@@H]1[C@H](C2)N(C)CC3 [Dextromethorphan]
metabolism by CYP2D6 (CYP2D6 [7]): O-demethylated by CYP2D6

NCCC(Oc1ccc(C(F)(F)F)cc1)c1ccccc1 (centres unmarked) [Norfluoxetine]
IC50 (CYP2D6 [3]): 8.4 µM and 1.1 µM

CC[N+](C)(CC)CCc1c(C(F)(F)F)c2ccc(OC)cc2oc1=O [Compound Ib, 3-[2-(N,N-diethyl-N-methylammonium)ethyl]-7-methoxy-4-trifluoromethylcoumarin iodide]
catalytic turnover (CYP2D6 [4]): lower catalytic turnover compared to compound Ia
catalytic selectivity for dealkylation [5]: also substrates for other human P450 enzymes

N=C(N)N1CCc2ccccc2C1 [Debrisoquine]
IC50 (CYP2D6 [3]): 29 µM and 20 µM and 10.6 µM and 105 µM

B1: CYP2D6 (Homo sapiens) (protein)
chain: MGLEALVPLAVIVAIFLLLVDLMHRRQRWAARYPPGPLPLPGLGNLLHVDFQNTPYCFDQLRRRFGDVFSLQLAWTPVVVLNGLAAVREALVTHGEDTADRPPVPITQILGFGPRSQGVFLARYGPAWREQRRFSVSTLRNLGLGKKSLEQWVTEEAACLCAAFANHSGRPFRPNGLLDKAVSNVIASLTCGRRFEYDDPRFLRLLDLAQEGLKEESGFLREVLNAVPVLLHIPALAGKVLRFQKAFLTQLDELLTEHRMTWDPAQPPRDLTEAFLAEMEKAKGNPESSFNDENLRIVVADLFSAGMVTTSTTLAWGLLLMILHPDVQRRVQQEIDDVIGQVRRPEMGDQAHMPYTTAVIHEVQRFGDIVPLGVTHMTSRDIEVQGFRIPKGTTLITNLSSVLKDEAVWEKPFRFHPEHFLDAQGHFVKPEAFLPFSAGRRACLGEPLARMELFLFFTSLLQHFSFSVPTGQPRPSHHGVFAFLVSPSPYELCAVPR
notes: purchased GENTEST Corporation P217; host or cells: baculovirus/insect cell (SUPERSOMES)
kcat [8]: 0.000283 s⁻¹
Km ([8]; other: apparent Km): 67 µM
kcat [9]: 0.00267 s⁻¹
Km ([9]; other: apparent Km): 0.8 µM
kcat [10]: 0.0167 s⁻¹
kcat [11]: 0.0033 s⁻¹
Km ([11]; other: apparent Km): 3.3 µM
